Test results as given in article PMC9103184, “Kunitz-Type Peptides from Sea Anemones Protect Neuronal Cells against Parkinson’s Disease Inductors via Inhibition of ROS Production and ATP-Induced P2X7 Receptor Activation” (International Journal of Molecular Sciences, 2022).
Like-named read-outs stand apart in the source and are kept apart here.

Legend:
trypsin [1] = molecular target: T1, trypsin (Bos taurus, UniProt P00760); assay: Residual trypsin-inhibitory activity after heating; format: biochemical; settings: all temperature ranges up to 100 °C; 7 μM peptide, 1.2 mM BAPNA, 37 °C, 410 nm, three parallel experiments
T1 sequence (P00760 24-246): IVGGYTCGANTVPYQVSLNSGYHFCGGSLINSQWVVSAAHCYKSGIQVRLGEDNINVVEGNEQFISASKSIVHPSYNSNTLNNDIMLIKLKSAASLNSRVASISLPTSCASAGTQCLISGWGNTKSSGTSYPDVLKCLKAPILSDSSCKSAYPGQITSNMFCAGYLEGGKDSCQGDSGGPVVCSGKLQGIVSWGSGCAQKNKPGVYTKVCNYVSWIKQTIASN
Protocol: Figure 6 The effects of temperature on the trypsin-inhibitory activity levels of peptides. Peptides were incubated at the temperatures for 30 min and their residual activities were measured.
The temperature influence on the activity levels of peptides was assessed by measuring their residual inhibitory activity levels. After preincubation at temperatures ranging from 25 to 100 °C for 25 min, the peptide solutions were added to trypsin solution and the reaction mixtures were incubated for 10 min at 37 °C, then 1.2 mM BAPNA was added, followed by incubation at 37 °C for 30 min. The final concentration of the peptides was 7 μM. Substrate hydrolysis was measured at 410 nm. The residual activity was calculated based on the results of three parallel experiments according to the following equation [60]:% = (1 − residual enzyme activity/enzyme activity without inhibitor) × 100

Neuro-2a cells [2] = assay: Rotenone-induced ROS formation (H2DCF-DA); format: cell-based, murine; settings: peptide 0.01 μM, 10 μM rotenone 1 h, means ± SE
Protocol: (§1) Figure 8 Effects of the peptides on intracellular ROS and NO formation. The effects of the peptides on ROS formation into Neuro-2a cells treated by 600 μM paraquat (a) and 10 μM rotenone (b). The effects of peptides on NO formation into the cells treated by 600 μM paraquat (c) and 10 μM rotenone (d). Cells were incubated with peptides for 1 h at 37 °C, then 3 or 1 h with paraquat or rotenone, respectively. The data are shown as the means ± SE; *—p < 0.05, **—p < 0.01, #—p < 0.05 when comparing concentrations of the same peptide.
(§2) Neuro-2a cells were incubated with peptides at concentrations of 0.01, 0.1, and 1 µM for 1 h. Then, paraquat (600 μM) or rotenone (10 µM) was added to each well and cells were incubated for 3 or 1 h, respectively. To study the ROS formation, the 2,7-dichlorodihydrofluorescein diacetate (H2DCF-DA) assay was performed according to the manufacturer’s instructions (Molecular Probes, Eugene, OR, USA). […]
(§3) To determine the NO production, a 4-amino-5-methylamino-2′,7′-difluorofluorescein diacetate (DAF-FM) assay was performed according to the manufacturer’s instructions (Invitrogen, Carlsbad, CA, USA). […] In both cases, the fluorescence intensity was measured using a PHERAstar FS high-speed plate reader (BMG Labtech, Ortenberg, Germany) at λex = 485 nm and λem = 518 nm. […]

Neuro-2a cells [3] = assay: Paraquat-induced ROS formation (H2DCF-DA); format: cell-based, murine; settings: peptide 0.01 μM, 600 μM paraquat 3 h, means ± SE
Protocol: as §1, §2, §3

trypsin [4] = molecular target: T1, trypsin; settings: cited from earlier work
Protocol: As mentioned above, the main function of Kunitz-type peptides is the inhibition of proteases, in particular trypsin. To confirm the bioactive conformation of HCIQ1c9, its ability to inhibit trypsin was determined. […] The decrease in trypsin-inhibitory activity of HCIQ1c9 and HCIQ4c7 in comparison with HCIQ2c1 is probably associated ... || The active spatial conformation of the peptides was also confirmed by the presence of trypsin-inhibitory activity. […] Thus, both negatively and positively charged residues at position P1’ led to decreases in the trypsin-inhibitory activity of the peptides, with HCIQ4c7 beings a stronger trypsin inhibitor than HCIQ1c9. This was due to the residue Glu17, which can make additional contact with ...

P2X7R = assay: ATP-induced YO-PRO-1 uptake in Neuro-2a cells; format: cell-based, murine; settings: 0.01–1.0 μM, 4 mM ATP
Protocol: Figure 11 The effects of the peptides on ATP-induced Neuro-2a cell viability and activation of P2X7R. (a) Impact of the peptides on Neuro-2a cell viability in the presence of 4 mM ATP. The peptides were tested at concentrations of 0.01, 0.1, and 1.0 μM. Cells were incubated with peptides for 1 h at 37 °C, then for 48 h with ATP. (b) Effects of the peptides (0.01, 0.1, and 1.0 μM) on YO-PRO-1 uptake in Neuro-2a cells. ATP was used as a P2X7R agonist. A438079 (10 μM) was used as a standard inhibitor of P2X7R. The peptide effects were evaluated against the effects of ATP. The data are shown as means ± SE; *—p < 0.05 compared to the effect of ATP alone.
For the uptake measurements of the large cationic dye YO-PRO-1, the peptides at final concentrations of 0.01, 0.1, and 1.0 μM were added to the culture medium with Neuro-2a cells and further incubated for 1 h at 37 °C with 5% CO2. Then, the cells were washed once with Hanks’ balanced salt solution (HBSS) (140 mM NaCl, 5 mM KCl, 0.8 mM MgCl2, 2 mM CaCl2, 10 mM glucose, 10 mM HEPES, pH 7.4) and filled with 180 μL of the same buffer. YO-PRO-1 (Sigma-Aldrich, St. Louis, MO, USA) was loaded into the wells to a final concentration of 5 μM, the cells were incubated for 15 min at 37 °C, then ATP was added to a final concentration of 4 mM and the plates were incubated for an additional 10 min. Then, the cells were washed three times with the buffer solution and the fluorescence intensity levels were measured with a PHERAstar FS plate reader (BMG, Germany) at λex = 480 nm and λem = 520 nm. A438079 (10 μM), a standard inhibitor of P2X7R, was used as positive control. The effectiveness of the peptides was evaluated relative to the control with ATP.

Neuro-2a cells [5] = settings: cited from earlier work
Protocol: The peptides were tested for cell viability in in vitro 6-OHDA-, rotenone-, paraquat-, and MPP^+-induced Parkinson’s disease models. All peptides were non-toxic on Neuro-2a cells at a concentrations up to 10 µM (Figure S2). The viability of neurotoxin-treated cells was about 65% versus control (Figure 7).

HCIQ2c1: recombinant Kunitz-type peptide from Heteractis crispa, UniProtKB ID A0A6B7FBD3 (IQGNICSEPKKVGRCRGSFPRFYFDSETGKCTPFIYGGCGGNGNNFETLHACRAICRA; UniProt A0A6B7FBD3 28-85, looked up)
trypsin-inhibitory activity after heating (trypsin [1]): inhibit trypsin completely at all temperature ranges
decrease in rotenone-induced ROS level (Neuro-2a cells [2]): 22.0 ± 7.3%
decrease in paraquat-induced ROS level (Neuro-2a cells [3]): 30.7 ± 1.8%
Ki (trypsin [4]; as shown previously, ref not printed at place, read-out: inhibited trypsin at (order of magnitude)): ~10 nM
Ki (trypsin [4]; read-out: trypsin inhibitory constant (Ki)): 52 nM
inhibition of ATP-induced YO-PRO-1 uptake (P2X7R): inhibited ATP-induced dye uptake, but their effects were not statistically significant
increase in viability of 6-OHDA-treated cells (Neuro-2a cells [5]): 47%
protection against 6-OHDA compared with HCIQ4c7 (Neuro-2a cells [5]): stronger neuroblastoma cell viability against 6-OHDA than HCIQ4c7
